Experimental data published in patent publication US7507749B2, “Antitumor agents” (priority 2001, dated 2009).
“And” between values parts separate entries of the source, which are not always exact repeats. Equal entries are not always repeated. Where two headings read alike, the source gives them in different places.

Legend:
B16 melanoma [1] = conditions: historic, B16 melanoma implanted subcutaneously (SC); cited from earlier work
[2] = test system: pancreatic ductal adenocarcinoma 03; conditions: historic; cited from earlier work
[3] = test system: pancreatic ductal adenocarcinoma-03; type: in vivo; conditions: Cg 8 in table (Cage 13 in text); IV 7.5 mg/kg/inj days 6,14; total 15 mg/kg
Procedure: BDF1 female mice were obtained from N.C.I., CRL-Ral (D.O.B. was Feb. 26, 2001; D.O.A. was Mar. 10, 2001). The mice weighed an average of 22.5 gm. Mice were implanted SC with pancreatic ductal adenocarcinoma-03 passage 143. (D.O.T. was May 29, 2001; Td was 2.3 days).
The R-enantiomer of compound 22c was suspended in 3% ethanol, 1% POE-80, 0.25% sodium bicarbonate (by volume) to effect solution. dH2O was then added, and the pH adjusted to 7 with HCl. […] The R-enantiomer of compound 22b was suspended in 3% ethanol, 1% POE-80, 0.5% sodium-bicarbonate (by volume) to effect solution. Then, dH2O was added, and the pH adjusted to 7.5 with HCl. […] Adriamycin (source ADRIA; lot 2033BC) was suspended in dH2O to effect solution, and the pH was 6.0.
Treatment began six days following implant, at which time the tumors were palpable size (126 mg median). The duration of treatment was prolonged (18 days) in order to obtain a clear separation in efficacy between the compounds.

[4] = test system: mammary adenocarcinoma-16/C; assay: Test F: R-enantiomers of 22b and 22c against early staged mammary adenocarcinoma-16/C; type: in vivo, C3H female mice; conditions: Cage 11, IV 7.5 mg/kg/inj days 1,5, total 15 mg/kg
Procedure: C3H female mice were obtained from N.C.I. (D.O.B. was […]; D.O.A. was Jan. 27, 2001). The mice weighed an average of 19.2 gm. Mice were implanted SC with mammary adenocarcinoma-16/C passage-170, a fast growing, highly invasive, highly metastatic tumor (D.O.T. was Mar. 8, 2001; Td was 1.2 days).
The R-enantiomers of both Compound 22c and Compound 22b were each suspended in 3% ethanol, 1% POE-80, 0.5% sodium bicarbonate (by volume) to effect solution, P.B.S. was then added and the pH adjusted to 7 with HCl. Adriamycin (ADRIA; lot number 20338c) was suspended in dH2O to effect solution and the pH was adjusted to 6.0. Mice were administered 0.2 ml per IV injection.

[5] = test system: pancreatic ductal adenocarcinoma 03
From the text: Pancreatic ductal adenocarcinoma-03, B16-melanoma, mammary adenocarcinoma-16/C/Adr, mammary adenocarcinoma-17/Adr, colon adenocarcinoma-26, and mammary adenocarcinoma-16/C were used in the studies.
(§1) Tumors were maintained in the mouse strain of origin C57B1/6 (for Panc03, B16), Balb/c (for Colon 26) and C3H (for the mammary tumors). Tumors were transplanted into the appropriate F1 hybrid (BDF1=C57B1/6 female X DBA/2 male) or the strain of origin for the chemotherapy trials. Individual mouse body weights for each experiment were within 5 grams, and all mice were over 17 grams at the start of therapy. The mice were supplied food and water ad libitum.
(§2) Animals were pooled, implanted subcutaneously with 30 to 60 mg tumor fragments by a 12 gauge trocar on day 0, and again pooled before unselective distribution to the various treatment and control groups. For early stage treatment, chemotherapy was started within 1 to 3 days after tumor implantation while the number of cells was relatively small (10^7 to 10^8 cells). For upstaged or advanced staged trials, the tumors were allowed to grow for five or more days before treatment was started. Tumors were measured with a caliper twice weekly. […] Tumor weights are estimated from two-dimensional measurements:
(§3) Tumor weight (in mg)=(a×b^2)/2, where a and b are the tumor length and width in (mm), respectively.
(§4) The following quantitative endpoints were used to assess antitumor activity: • a) Tumor growth delay (T-C value), where T is the median time (in days) required for the treatment group tumors to reach a predetermined size (e.g., 1000 mg), and C is the median time (in days) for the control group tumors to reach the same size. Tumor-free survivors are excluded from these calculations (cures are tabulated separately). This value is an important criterion of antitumor effectiveness because it allows the quantification of tumor cell kill. • b) Calculation of tumor cell kill for subcutaneously (SC) growing tumors, the log10 cell kill was calculated from the following formula:
(§5) The conversion of the T-C values to log10 cell kill is possible because the Td of tumors regrowing post treatment (Rx) approximates the Td values of the tumors in untreated control mice.
In selected cases, both for historic in vivo evaluation data as well as data presented here, it is of value to compare log kill numbers from trials of markedly different testing schedules. […] It should be noted that an activity rating of +++ to ++++ is needed to effect partial regression (PR) or complete regression (CR) of 100 to 300 mg size masses of most transplanted solid tumors of mice. Thus, an activity rating of + or ++ would not be scored as active by usual clinical criteria. A PR is a reduction in tumor mass to less than 50% of pretreatment size. A CR is a reduction in tumor mass to below palpable size (i.e., reduction to zero detectable mass).
(§6) The T/C value in percent is an indication of antitumor effectiveness: A T/C=0% means no tumor growth. […] A T/C value <10% is considered to indicate highly significant antitumor activity, and is the level used by NCI to justify a clinical trial if toxicity, formulation, and certain other requirements are met (termed DN-2 level activity).
Female BDFl mice (obtained from NCI-Raleigh) (date of birth (hereinafter D.O.B.) Mar. 27, 2000; date of arrival (hereinafter D.O.A.) Apr. 9, 2000) were implanted (tumor implant date (hereinafter D.O.T.) Mar. 17, 2000) with pancreatic ductal adenocarcinoma 03 tumor, divided into treatment and control groups.

[6] = test system: mammary adenocarcinoma-16/C/Adr; assay: Test C: evaluation against early stage mammary adenocarcinoma-16/C/Adr; type: in vivo
From the text: Early stage mammary adenocarcinoma-16/C/Adr is a p-glycoprotein negative multidrug resistant tumor. C3H female mice were obtained from NCI-Kingston-CRL (D.O.B. Apr. 3, 2000; D.O.A. May 16, 2000). […] The control animals (Cage #1) received no treatment.

B16 melanoma [7] = test system: B16 melanoma
From the text: as §1, §2, §3, §4, §5
It should be noted that an activity rating of +++ to ++++ is needed to effect partial regression (PR) or complete regression (CR) of 100 to 300 mg size masses of most transplanted solid tumors of mice. Thus, an activity rating of + or ++ would not be scored as active by usual clinical criteria. A PR is a reduction in tumor mass to less than 50% of pretreatment size. A CR is a reduction in tumor mass to below palpable size (i.e., reduction to zero detectable mass).
as §6
The mice were divided into a control group and three experimental groups. The control group (Cage #1) received no treatment.
A −20% body weight loss is considered excessively toxic by N.C.I. standards.

colon carcinoma 26 = test system: colon carcinoma 26
Procedure: In this trial the R-enantiomers of XK-469, compound 22c, and compound 22b were compared against advanced staged colon carcinoma 26 in female Balb/c mice. […] Cage #2 was 22b at 400 mg/kg and Cage #4 was 22c at 400 mg/kg.
The XK469-R, 22b, and 22c compound doses were all prepared the same, using 3% ethanol, 1% POE-80, and 0.5% sodium bicarbonate. The injection volume was 0.2 mu/mouse IV. […] The mice were Balb/c female mice: DOB Feb. 12, 2001; DOA Mar. 27, 2001; DOT Sep. 8, 2001, with an average body weight of 24.7 grams at the start of Rx administration. The tumor was Colon Carcinoma-26 passage 141; date of implant Sep. 8, 2001, and implanted at 30 to 60 mg fragments bilaterally SC. All tumors were 63 to 171 mg on day 6, the day of first Rx.

[8] = Cage 7, IV daily days 3-9, 7 inj, total 336 mg/kg
[9] = Cage 2, IV 42 mg/kg twice daily days 1-3 and 11-13, total 504 mg/kg
[10] = Cage 3, IV 27 mg/kg twice daily days 1-3 and 11-13, total 324 mg/kg
[11] = Cage 2, IV 40 mg/kg/inj days 1-4, 8 inj, total 320 mg/kg
[12] = Cage 3, IV 50 mg/kg/inj daily days 1-5, total 250 mg/kg
[13] = Cage 4, IV 30 mg/kg/inj daily days 1-6, total 180 mg/kg
[14] = Cg 3, IV 50 mg/kg/inj days 6,8,10,13,15, total 250 mg/kg

CC(=O)O[C@H]1C(=O)[C@@]2(C)[C@H]([C@H](OC(=O)c3ccccc3)[C@]3(O)C[C@H](OC(=O)[C@H](O)[C@@H](NC(=O)c4ccccc4)c4ccccc4)C(C)=C1C3(C)C)[C@]1(OC(C)=O)CO[C@@H]1C[C@@H]2O [taxol]
activity rating (responsiveness of the tumor to standard agents) (B16 melanoma [1]): +or +/−
activity rating (sensitivity of the tumor to standard agents) [2]: ++++ (>2.8)

CC[C@@]1(O)C(=O)OCc2c1cc1n(c2=O)Cc2cc3ccccc3nc2-1 [camptothecin]
activity rating (responsiveness of the tumor to standard agents) (B16 melanoma [1]): +or +/−

O=c1[nH]cc(F)c(=O)[nH]1 [Compound 5-FU, 5-FU]
activity rating (sensitivity of the tumor to standard agents) [2]: + (0.7-1.2)

O=NN(CCCl)C(=O)NCCCl [BCNU]
activity rating (responsiveness of the tumor to standard agents) (B16 melanoma [1]): ++++ (>2.8)

COc1cccc2c1C(=O)c1c(O)c3c(c(O)c1C2=O)C[C@@](O)(C(=O)CO)C[C@@H]3O[C@H]1C[C@H](N)[C@H](O)[C@H](C)O1 [Adriamycin, reference compound]
activity rating (responsiveness of the tumor to standard agents) (B16 melanoma [1]): +or +/−
% Body Wt change between day 6 and day 24 [3]: −5.4%
% T/C mass [3]: 17.0%
Activity Rating [3]: +++ (2.0-2.8)
CR's [3]: 1/5
Drug Deaths [3]: 0/5
Growth Delay [3]: 17.5 days
Log Kill [3]: 2.3
Median Tumor Mass on Day 24 (Range) [3]: 383 mg
Median time for tumors to 1,000 mg (range) [3]: 34 days
PR's [3]: 1/5
Tumor Free day-157 [3]: 0/5
% Body Wt Loss at Nadir [4]: 0%
% T/C mass [4]: 0%
Day of Nadir [4]: 8 days
Drug Deaths [4]: 1/5
Growth Delay [4]: 12.0 days
Log Kill [4]: 3.6
Median Tumor Mass on Day 10 (Range) [4]: 0 mg
Median time for tumors to 1000 mg (range) [4]: 21.5 (17-27.5) days
Tumor Free day-155 [4]: 0/5
% Body Wt Loss at Nadir ([4]; listed as adriamycin): no body weight loss
% T/C mass ([4]; listed as adriamycin): 0%
Activity Rating ([4]; listed as adriamycin): ++++ (>2.8)
Drug Deaths ([4]; listed as adriamycin): one delayed drug-death
activity rating (sensitivity of the tumor to standard agents) [2]: +++ (2.0-2.8)

CC(Oc1ccc(Oc2ccc3ccc(Cl)cc3n2)cc1)C(=O)O (racemic) [Compound 22b, 2-[4-(7-chloroquinolin-2-yloxy)phenoxy]propanoic acid]
% T/C mass [5, 8]: 0%
Activity Rating [5, 8]: +++ (2.0-2.8)
Drug Deaths [5, 8]: 0/5
Growth Delay In Days [5, 8]: 17.5 days
Log Kill [5, 8]: 2.6
Median Tumor Mass on Day 14 (Range) [5, 8]: 0 (0-126) mg
Tumor Free day-37 [5, 8]: 0/5
% Body Wt Loss at Nadir ([5]; mouse, in vivo): −8.9%
Day of Nadir ([5]; mouse, in vivo): 11 days
% Body Wt Loss at Nadir [6, 9]: −15%
% T/C mass [6, 9]: 0%
Activity Rating [6, 9]: +++ (2.0-2.8)
Day of Nadir [6, 9]: 7 days
Day of full recovery of body weight [6, 9]: 12 days
Drug Deaths [6, 9]: 0/6
Growth Delay [6, 9]: 8.0 days
Log Kill [6, 9]: 2.0
Median Tumor Mass on Day 11 (Range) [6, 9]: 0 (0-308) mg
Tumor Free day-18 [6, 9]: 0/6
Neuromuscular toxicity ([6]; Cage 2, IV 42 mg/kg twice daily, lasting about ten minutes post injection): modest neuromuscular gait disturbance
Neuromuscular toxicity ([6]; Cage 3, IV 27 mg/kg twice daily): insignificant gait disturbance
% Body Wt Loss at Nadir [6, 10]: −1.1%
% T/C mass [6, 10]: 53%
Activity Rating [6, 10]: inactive
Day of Nadir [6, 10]: 7 days
Day of full recovery of body weight [6, 10]: 8 days
Drug Deaths [6, 10]: 0/6
Growth Delay [6, 10]: 2.25 days
Log Kill [6, 10]: 0.6
Median Tumor Mass on Day 11 (Range) [6, 10]: 741 (516-1199) mg
Tumor Free day-18 [6, 10]: 0/6
% T/C mass (B16 melanoma [7]; [11]): 0%
Cause of death (B16 melanoma [7]; [11]): marrow toxicity
Drug Deaths (B16 melanoma [7]; [11]): 1/5
Growth Delay (B16 melanoma [7]; [11]): 12.5 days
Log Kill (B16 melanoma [7]; [11]): 3.8
Median Tumor Mass on Day 9 (Range) (B16 melanoma [7]; [11]): 0 (all zeros) mg
Tumor Free day-24 (B16 melanoma [7]; [11]): 0.5
Activity Rating (B16 melanoma [7]; Cage 2, IV 40 mg/kg/inj days 1-4, 8 inj, total 320 mg/kg, listed as 22b (racemic)): toxic
% T/C mass (B16 melanoma [7]; [12]): 0%
Activity Rating (B16 melanoma [7]; [12]): +++ (2.0-2.8)
Drug Deaths (B16 melanoma [7]; [12]): 0/5
Growth Delay (B16 melanoma [7]; [12]): 8.5 days
Log Kill (B16 melanoma [7]; [12]): 2.6
Median Tumor Mass on Day 9 (Range) (B16 melanoma [7]; [12]): 0 (all zeros) mg
Tumor Free day-24 (B16 melanoma [7]; [12]): 0/5
% T/C mass (B16 melanoma [7]; [13]): 15.6%
Activity Rating (B16 melanoma [7]; [13]): ++ (1.3-1.9)
Drug Deaths (B16 melanoma [7]; [13]): 0/5
Growth Delay (B16 melanoma [7]; [13]): 6.0 days
Log Kill (B16 melanoma [7]; [13]): 1.8
Median Tumor Mass on Day 9 (Range) (B16 melanoma [7]; [13]): 221 (63-334) mg
Tumor Free day-24 (B16 melanoma [7]; [13]): 0/5
Day of Nadir (B16 melanoma [7]; mouse, in vivo): 8 days
Day of full recovery of body weight (B16 melanoma [7]; mouse, in vivo): 11 days and 9 days
Duration of neuromuscular toxicity post injection (B16 melanoma [7]; mouse, in vivo): over 20 minutes
Neuromuscular toxicity (slowing of nerve conduction) (B16 melanoma [7]; mouse, in vivo): substantial post injection neuromuscular toxicity and mild
Toxicity of dose group (colon carcinoma 26; Cage 2, 400 mg/kg, omitted from Table 8): toxic
Activity Rating (colon carcinoma 26; [14]): ++ (1.3-1.9)
CR's (colon carcinoma 26; [14]): 1/6
Log Kill (colon carcinoma 26; [14]): 1.4

COc1ccc2ccc(Oc3ccc(OC(C)C(=O)O)cc3)nc2c1 (stereo not drawn)
melting point: 164 to 166 °C
